These results are taken from patent US4007165A (priority 1974, dated 1977).

Series [1] can be described thus: Preliminary toxicological studies / toxicity.
Series [2] in a line: Curing of unsaturated polyester-styrene resin. On the procedure: An unsaturated polyester resin was made by reacting maleic anhydride (1.0 mole), phthalic anhydride (1.0 mole), and propylene glycol (2.2 moles) until an acid number of 45-50 was obtained. To this was added hydroquinone at a 0.013% concentration. Seven parts of this unsaturated polyester was diluted with 3 parts of monomeric styrene to obtain a homogeneous blend having a viscosity of 13.08 poise and a specific gravity of 1.14.
To 20 grams of this blend was added 0.128 gram of alpha-(tert.-butylazo)isobutyronitrile and the resultant composition placed in a constant temperature bath at 212° F. (100° C.). […] At 180° F. (82.2° C.), a peak exotherm of 381° F. (193.9° C.) was obtained in 13.3 minutes. The resultant cured materials were very hard.
The procedure of Example III was used at 212° F. (100° C.) and 240° F. (115.6° C.) where peak exotherms of 414° F. (212.2° C.) and 440° F. (226.7° C.) were obtained after 10.0 and 5.3 minutes respectively using 0.2 gram of the 1-tert.-butylazo-1-cyanocyclohexane. The resultant cured resins were very hard.
The curing procedure and resin are described in Example III.

The nature of a further series: Solubility. Type of series: physicochemical. To be noted: petroleum and other organic solvents.
Series [3] in a line: High pressure polymerization of ethylene.
A short description of series [4]: Thermal decomposition half-life. Type of series: physicochemical. How it is done: (§1) It produces 179 cc. of gas per gram at 110° C. The following half-life data have been determined:
The following half-life data have been determined by gas evolution technique using trichlorobenzene as the solvent: […]

Series [5] in a line: Gas volume generated on thermal decomposition. Type of series: physicochemical. The following applies: 130° C. How it is done:
as §1
It produces 146 cc. of gas per gram at 130° C.

Where [6] appears, read: 180° F. (82.2° C.), 0.128 gram in 20 grams blend.
Setting [7] is: bath 212° F. (100° C.), 0.128 gram in 20 grams blend.

For the compound `CC(C)(C)N=NC(C)(C)C#N` [Example I, Alpha-(tert.-butylazo)isobutyronitrile], in series [1], the “toxicity relative to IXA and its decomposition residue” value is on record as “significantly less toxic”. Also, the “hardness of cured resin” value in series [2] is reported as “very hard”. In addition, in series [2] (setting [6]), the peak exotherm is 381 ° F and the “time to peak exotherm” value was found to be 13.3 min. The “quality of cure” value in series [2] (212° F. (100° C.)) is recorded as “excellent cure”. Moreover, in series [2] (setting [7]), the peak exotherm came out at 424 ° F and the “time to peak exotherm” value came to 4.9 min. Further, the “solubility” value in the series “Solubility” is on record as “soluble in petroleum solvents”. Also, the “initiator performance” value in series [3] is reported as “especially advantageous initiators”. In series [4] (70° C.), the “t 1/2” value was 40.5 h.
Consider `CC(C)(C)N=NC1(C#N)CCCCC1` [Example IV, 1-tert.-butylazo-1-cyanocyclohexane], for which the “toxicity relative to IXA and its decomposition residue” value in series [1] is “significantly less toxic”. In series [5], the gas produced is reported as 146 cc. of gas per gram. Moreover, the “hardness of cured resin” value in series [2] is “very hard”. Besides, the peak exotherm in series [2] (212° F. (100° C.), 0.2 gram) amounted to 414 ° F; in series [2] (240° F. (115.6° C.), 0.2 gram), 440 ° F. The “time to peak exotherm” value in series [2] (212° F. (100° C.), 0.2 gram) came out at 10.0 min; in series [2] (240° F. (115.6° C.), 0.2 gram), 5.3 min. Further, in series [3], the “initiator performance” value is listed as “especially advantageous initiators”. The “t 1/2” value was 10.0 h in series [4] (96.3° C.), 6.7 h in series [4] (100° C.), 2.3 h in series [4] (110° C.) and “.75 h” in series [4] (120° C.).
